#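 These data come from cells grown in 96-well plates and exposed to compound for 48 hours at five concentrations. At the GI50, growth is halved. TGI: concentration producing complete growth inhibition.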
# Legend:
# Experiment in all cases: growth of human tumour cells (NCI), 48 h
# LOX IMVI melanoma = tested on: LOX IMVI melanoma
# HCT-116 colon = tested on: HCT-116 colon
# MOLT-4 leukemia = tested on: MOLT-4 leukemia
# RPMI-8226 leukemia = tested on: RPMI-8226 leukemia
# RXF 393 renal = tested on: RXF 393 renal
# SK-OV-3 ovarian = tested on: SK-OV-3 ovarian
# U251 CNS = tested on: U251 CNS
# PC-3 prostate = tested on: PC-3 prostate
# OVCAR-4 ovarian = tested on: OVCAR-4 ovarian
# SK-MEL-5 melanoma = tested on: SK-MEL-5 melanoma
# NCI-H226 lung = tested on: NCI-H226 lung
# ACHN renal = tested on: ACHN renal
# HOP-62 NSCLC = tested on: HOP-62 NSCLC
# OVCAR-3 ovarian = tested on: OVCAR-3 ovarian
# SF-295 CNS = tested on: SF-295 CNS
# SF-539 CNS = tested on: SF-539 CNS
# NCI-H23 lung = tested on: NCI-H23 lung
# MDA-MB-231 breast = tested on: MDA-MB-231 breast
# MCF7 breast = tested on: MCF7 breast
# DU-145 prostate = tested on: DU-145 prostate
# SNB-19 CNS = tested on: SNB-19 CNS
# SK-MEL-2 melanoma = tested on: SK-MEL-2 melanoma
# UACC-257 melanoma = tested on: UACC-257 melanoma
# UACC-62 melanoma = tested on: UACC-62 melanoma
# HT29 colon = tested on: HT29 colon
# HCT-15 colon = tested on: HCT-15 colon
# CCRF-CEM leukemia = tested on: CCRF-CEM leukemia
# IGROV1 ovarian = tested on: IGROV1 ovarian
# OVCAR-8 ovarian = tested on: OVCAR-8 ovarian
# SK-MEL-28 melanoma = tested on: SK-MEL-28 melanoma
# HS 578T breast = tested on: HS 578T breast
# SR leukemia = tested on: SR leukemia
# 786-0 renal = tested on: 786-0 renal
# SW-620 colon = tested on: SW-620 colon
# NCI/ADR-RES ovarian = tested on: NCI/ADR-RES ovarian
# TK-10 renal = tested on: TK-10 renal
# BT-549 breast = tested on: BT-549 breast
# SN12C renal = tested on: SN12C renal
# OVCAR-5 ovarian = tested on: OVCAR-5 ovarian
# KM12 colon = tested on: KM12 colon
# CAKI-1 renal = tested on: CAKI-1 renal
# UO-31 renal = tested on: UO-31 renal
# MALME-3M melanoma = tested on: MALME-3M melanoma
# EKVX NSCLC = tested on: EKVX NSCLC
# T-47D breast = tested on: T-47D breast
# MDA-MB-435 = tested on: MDA-MB-435
# HCC-2998 colon = tested on: HCC-2998 colon
# NCI-H460 lung = tested on: NCI-H460 lung
# COLO 205 colon = tested on: COLO 205 colon
# HL-60(TB) leukemia = tested on: HL-60(TB) leukemia
# SF-268 CNS = tested on: SF-268 CNS
# K-562 leukemia = tested on: K-562 leukemia
# SNB-75 CNS = tested on: SNB-75 CNS
# NCI-H522 lung = tested on: NCI-H522 lung
# M14 melanoma = tested on: M14 melanoma
structure (smiles),measurement,setting,value
COc1cc2cc(C(=O)O)[nH]c2cc1OCc1ccccc1,GI50,LOX IMVI melanoma,> 100 µM
same,TGI,LOX IMVI melanoma,> 100 µM
same,GI50,HCT-116 colon,> 100 µM
same,TGI,HCT-116 colon,> 100 µM
same,GI50,MOLT-4 leukemia,> 100 µM
same,TGI,MOLT-4 leukemia,> 100 µM
same,GI50,RPMI-8226 leukemia,> 100 µM
same,TGI,RPMI-8226 leukemia,> 100 µM
same,GI50,RXF 393 renal,> 100 µM
same,TGI,RXF 393 renal,> 100 µM
same,GI50,SK-OV-3 ovarian,> 100 µM
same,TGI,SK-OV-3 ovarian,> 100 µM
same,GI50,U251 CNS,> 100 µM
same,TGI,U251 CNS,> 100 µM
same,GI50,PC-3 prostate,> 100 µM
same,TGI,PC-3 prostate,> 100 µM
same,GI50,OVCAR-4 ovarian,> 100 µM
same,TGI,OVCAR-4 ovarian,> 100 µM
same,GI50,SK-MEL-5 melanoma,80.8 µM
same,TGI,SK-MEL-5 melanoma,> 100 µM
same,GI50,NCI-H226 lung,> 100 µM
same,TGI,NCI-H226 lung,> 100 µM
same,GI50,ACHN renal,> 100 µM
same,TGI,ACHN renal,> 100 µM
same,GI50,HOP-62 NSCLC,> 100 µM
same,TGI,HOP-62 NSCLC,> 100 µM
same,GI50,OVCAR-3 ovarian,> 100 µM
same,TGI,OVCAR-3 ovarian,> 100 µM
same,GI50,SF-295 CNS,> 100 µM
same,TGI,SF-295 CNS,> 100 µM
same,GI50,SF-539 CNS,> 100 µM
same,TGI,SF-539 CNS,> 100 µM
same,GI50,NCI-H23 lung,> 100 µM
same,TGI,NCI-H23 lung,> 100 µM
same,GI50,MDA-MB-231 breast,> 100 µM
same,TGI,MDA-MB-231 breast,> 100 µM
same,GI50,MCF7 breast,93.2 µM
same,TGI,MCF7 breast,> 100 µM
same,GI50,DU-145 prostate,> 100 µM
same,TGI,DU-145 prostate,> 100 µM
same,GI50,SNB-19 CNS,> 100 µM
same,TGI,SNB-19 CNS,> 100 µM
same,GI50,SK-MEL-2 melanoma,44.9 µM
same,TGI,SK-MEL-2 melanoma,> 100 µM
same,GI50,UACC-257 melanoma,89.4 µM
same,TGI,UACC-257 melanoma,> 100 µM
same,GI50,UACC-62 melanoma,> 100 µM
same,TGI,UACC-62 melanoma,> 100 µM
same,GI50,HT29 colon,> 100 µM
same,TGI,HT29 colon,> 100 µM
same,GI50,HCT-15 colon,84 µM
same,TGI,HCT-15 colon,> 100 µM
same,GI50,CCRF-CEM leukemia,> 100 µM
same,TGI,CCRF-CEM leukemia,> 100 µM
same,GI50,IGROV1 ovarian,> 100 µM
same,TGI,IGROV1 ovarian,> 100 µM
same,GI50,OVCAR-8 ovarian,> 100 µM
same,TGI,OVCAR-8 ovarian,> 100 µM
same,GI50,SK-MEL-28 melanoma,53.5 µM
same,TGI,SK-MEL-28 melanoma,> 100 µM
same,GI50,HS 578T breast,> 100 µM
same,TGI,HS 578T breast,> 100 µM
same,GI50,SR leukemia,> 100 µM
same,TGI,SR leukemia,> 100 µM
same,GI50,786-0 renal,> 100 µM
same,TGI,786-0 renal,> 100 µM
same,GI50,SW-620 colon,> 100 µM
same,TGI,SW-620 colon,> 100 µM
same,GI50,NCI/ADR-RES ovarian,> 100 µM
same,TGI,NCI/ADR-RES ovarian,> 100 µM
same,GI50,TK-10 renal,> 100 µM
same,TGI,TK-10 renal,> 100 µM
same,GI50,BT-549 breast,> 100 µM
same,TGI,BT-549 breast,> 100 µM
same,GI50,SN12C renal,> 100 µM
same,TGI,SN12C renal,> 100 µM
same,GI50,OVCAR-5 ovarian,> 100 µM
same,TGI,OVCAR-5 ovarian,> 100 µM
same,GI50,KM12 colon,> 100 µM
same,TGI,KM12 colon,> 100 µM
same,GI50,CAKI-1 renal,> 100 µM
same,TGI,CAKI-1 renal,> 100 µM
same,GI50,UO-31 renal,> 100 µM
same,TGI,UO-31 renal,> 100 µM
same,GI50,MALME-3M melanoma,2970 nM
same,TGI,MALME-3M melanoma,12.2 µM
same,GI50,EKVX NSCLC,> 100 µM
same,TGI,EKVX NSCLC,> 100 µM
same,GI50,T-47D breast,> 100 µM
same,TGI,T-47D breast,> 100 µM
same,GI50,MDA-MB-435,> 100 µM
same,TGI,MDA-MB-435,> 100 µM
same,GI50,HCC-2998 colon,> 100 µM
same,TGI,HCC-2998 colon,> 100 µM
same,GI50,NCI-H460 lung,> 100 µM
same,TGI,NCI-H460 lung,> 100 µM
same,GI50,COLO 205 colon,> 100 µM
same,TGI,COLO 205 colon,> 100 µM
same,GI50,HL-60(TB) leukemia,> 100 µM
same,TGI,HL-60(TB) leukemia,> 100 µM
same,GI50,SF-268 CNS,> 100 µM
same,TGI,SF-268 CNS,> 100 µM
same,GI50,K-562 leukemia,> 100 µM
same,TGI,K-562 leukemia,> 100 µM
same,GI50,SNB-75 CNS,> 100 µM
same,TGI,SNB-75 CNS,> 100 µM
same,GI50,NCI-H522 lung,> 100 µM
same,TGI,NCI-H522 lung,> 100 µM
same,GI50,M14 melanoma,> 100 µM
same,TGI,M14 melanoma,> 100 µM
